Experimental data published in patent US4510144A, “Methods of imparting immunomodulating activity with dihydrothiazolo purine derivatives” (Newport Pharmaceuticals International, priority 1982, dated 1985).
Read-outs that look alike come from different tables or passages of the source.

Assays:
[1] = system: splenocytes from athymic mice (theta positive cells); experiment: induction of theta positive cells in splenocytes from athymic (nude) mice in vitro; assay type: cell-based; details: for percent of theta positive cells: mean of three experiments, saline control 8
Text: (4) Induction of theta positive cells in nude mice (in vitro).

[2] = preliminary toxicity studies in Balb/C mice; assay type: in vivo
Method: If it is assumed 50 mg/kg is the minimum lethal dose and it is assumed <0.05 mg/kg is the minimum effective dose, the lowest possible therapeutic ratio for NPT 16416 is 50/0.05 or 1000/1.0. It is believed that the toxicity is far less by the oral route since 500 mg/kg p.o. produced no deaths in Balb/c mice.

Influenza A/USSR 90 = experiment: inhibition of influenza virus replication (hemadsorption assay); assay type: cell-based; details: read-out: % inhibition of viral growth
Method: The ability of NPT 16416 to inhibit influenza virus replication was measured using the hemadsorption assay.

[3] = system: murine spleen cells, Con A induced (T-cells); experiment: Con A induced lymphocyte proliferation in mouse spleen cells in vitro; assay type: cell-based, mouse (Balb/C); details: for activity at 0.01 µg/mL / activity at 0.1 µg/mL / activity at 1 µg/mL / activity at 2.5 µg/mL / activity at 5 µg/mL / activity at 25 µg/mL / activity at 50 µg/mL: Mus musculus
Text: (1) Mitogen-(Lipopolysaccharide, LPS or Con A) induced lymphocyte proliferation using murine spleen cells (in vitro)
1. […] LPS is a mitogen which acts preferentially on B-cells. […] Con A is considered a T-cell mitogen.
1. Balb/C male mice, 7-8 weeks old, are used up to 20-24 weeks of age.
2. The animals are sacrificed by cervical dislocation and the animals' left sides swabbed with 70% ethanol. An incision is made between the lower ribs and pelvis, laterally from front to back, and the skin retracted. Aseptic technique is to be observed from this point on.
3. The spleen is gently removed with sterile forceps. […] When all spleens have been collected and cleaned they are placed in a second petri dish containing 3 ml cold RPMI.
4. Spleen cell suspensions are prepared by gentle mincing of the tissue with a sterile blade and filtering through #100 stainless steel mesh.
6. An aliquot of the above suspension is prepared for cell counting as follows: 0.1 ml of suspension is diluted to 1.0 ml with 3% acetic acid and let stand at room temperature for at least five minutes. The sample is then diluted 1:100 with "Isoton II" (Curtis-Matheson Co.) and counted in a coulter counter.
MURINE SPLENOCYTE STIMULATION WITH CONCANAVALIN A (CON A), LIPOPOLYSACCHARIDE (LPS), AND ALLOGENEIC SPLENOCYTES (LMC).
There is set forth below the standard procedure which should be modified according to the solubility and other properties of the particular compound tested.
Add ~10 ml RPMI to 1.79 g HEPES and vortex until completely dissolved. […] Allow to warm temperature before use.
5. Con A (Calbiochem)--100 mg/ml NaCl injection solution (McGaw), filter, aliquot in 1 ml, and store at -70° C.
8. Tritiated thymidine (^3 H-TdR, Schwartz-Mann, 6 Ci/mM). Remove a slightly larger volume of ^3 H-TdR than needed from vial with a 1 cc syringe and place volume in the cap of a small sterile plastic tube. […] Vortex thoroughly before adding to plates.
1. Animals are sacrificed by cervical dislocation killing one from each group and processing the cells individually before killing the next animal. Swab each animal with 70% ethanol before surgery. […] Use 8 vertical strokes (or enough to break up all tissue) with Teflon-tipped homogenizer. Filter each sample through a 100 mesh screen into a 50 ml tube. […] After all samples have been spun, vortex each briefly and let sit for 1 hour. Vortex each sample ~5 seconds, waiting ~10 seconds between each sample. Let sit 5 minutes, then pipet cell suspension into 5 ml (12×75 mm) tube being careful not to remove any sediment. Remove 50 ul cell suspension using micropipetter, carefully wipe pipet tip with kimwipe and pipet into 20 ml Isoton in Coulter counter vial, rinsing pipet several times in the Isoton. Add 6 drops of CyMet and swirl vial to mix. Use the following Coulter counter settings: Amplification-1, Threshold-10, and Aperture Current-1. Clean counter with Isoterge the morning of experiment and count background before standardizing with CH 0.60 Hematology Controls. After cell counts are obtained, dilute to 6×10^6 cells/ml with supplemented RPMI and aliquot into 3 tubes for the 3 assays.
1. Pipet 100 μl control media (supplemented RPMI) or appropriate dilution of mitogen (starting with lowest concentration) into microtiter plate using Titertek multi-channel pipetter. Place plates in 37° C. CO2 incubator with CO2 set at 0.5 after each plate has been pipetted. Pipet 100 μl responder cells into wells starting with most dilute mitogen concentration. Place plates in incubator as they are filled and after all plates are in incubator, let sit for 10-20 minutes. Wrap plates with plastic wrap, recover with top, replace in incubator, and reset CO2 to ~0.05. Save ~50 ml supplemented RPMI at 4° C. for thymidine dilution. After ~44 hours warm the RPMI to 37° C. in incubator. Dilute tritiated Thymidine 1:100 in warmed RPMI. Use Titertek to add 50 μl Thymidine to each well. Treat plates as above and incubate overnight (~18 hours).

[4] = system: Herpes Simplex Virus Type I; experiment: inhibition of Herpes Simplex Virus replication; assay type: cell-based; details: read-out: % inhibition of viral growth
macrophages = experiment: lymphokine (macrophage mitogenic factor, MMF) induced macrophage proliferation in vitro; assay type: cell-based
Text: (2) Lymphokine (macrophage mitogenic factor, MMF) induced macrophage proliferation (in vitro
2. NPT 16416 is also capable of augmenting the lymphokine (MMF) induced proliferation of macrophages causing a 70% enhancement of macrophage proliferation.

For `Oc1ncnc2c1nc1n2CCS1` [NPT 16416, 3-hydroxy-7,8-dihydrothiazolo-[3,2e]-purine], the “percent of theta positive cells” value ([1]; .005-.01 μg/ml) was 14%, the “percent of theta positive cells” value ([1]; .05-.1 μg/ml) was 18% and the “percent of theta positive cells” value ([1]; .5-1.0 μg/ml) was 17%. For the same molecule, the “production of theta positive (T) cells, in words” value ([1]; in vitro) was “able to cause the production of T-cells from a T-cell deficient population”, the “increase of theta positive cells over control values” ([1]; spleen cells from athymic mice, in vitro) was 125% and the mortality ([2]; 50 mg/kg i.p., Balb/C mice) was “no mortality”. The deaths ([2]; 500 mg/kg p.o., Balb/c mice) was “no deaths”, the inhibition at 0.1 µg/mL (Influenza A/USSR 90; 0.1 μg/ml) was 54% and the inhibition at 0.5 µg/mL (Influenza A/USSR 90; 0.5 μg/ml) was 59%. For the same molecule, the inhibition at 75 µg/mL (Influenza A/USSR 90; 75 μg/ml) was 78%, the inhibition at 0.05 µg/mL (Influenza A/USSR 90; NPT 16416 0.05 μg/ml) was 48% and the activity at 0.01 µg/mL ([3]; T-cell, drug 10 ng/ml, Con A 1000 ng/ml, drug/control, read-out: Hi Mitogen D/C Con A) was 104%. For the same molecule, the activity at 0.1 µg/mL ([3]; T-cell, drug 100 ng/ml, Con A 1000 ng/ml, drug/control, read-out: Hi Mitogen D/C Con A) was 102%, the activity at 1 µg/mL ([3]; T-cell, drug 1,000 ng/ml, Con A 1000 ng/ml, drug/control, read-out: Hi Mitogen D/C Con A) was 103% and the activity at 2.5 µg/mL ([3]; T-cell, drug 2,500 ng/ml, Con A 1000 ng/ml, drug/control, read-out: Hi Mitogen D/C Con A) was 91%. The activity at 5 µg/mL ([3]; T-cell, drug 5,000 ng/ml, Con A 1000 ng/ml, drug/control, read-out: Hi Mitogen D/C Con A) was 101%, the activity at 25 µg/mL ([3]; T-cell, drug 25,000 ng/ml, Con A 1000 ng/ml, drug/control, read-out: Hi Mitogen D/C Con A) was 100% and the activity at 50 µg/mL ([3]; T-cell, drug 50,000 ng/ml, Con A 1000 ng/ml, drug/control, read-out: Hi Mitogen D/C Con A) was 99%. The activity at 0.01 µg/mL ([3]; read-out: Lo Mitogen D/C Con A) was 85%, the activity at 0.1 µg/mL ([3]; drug 100 ng/ml, Con A 375 ng/ml, drug/control, read-out: Lo Mitogen D/C Con A) was 105% and the activity at 1 µg/mL ([3]; drug 1,000 ng/ml, Con A 375 ng/ml, drug/control, read-out: Lo Mitogen D/C Con A) was 93%. It also gave an activity at 1 µg/mL ([3]; drug 1,000 ng/ml, Con A .375 μg/ml, read-out: Con A D/C (maximum values)) of 118%, an activity at 2.5 µg/mL ([3]; drug 2,500 ng/ml, Con A 375 ng/ml, drug/control, read-out: Lo Mitogen D/C Con A) of 98% and an activity at 5 µg/mL ([3]; drug 5,000 ng/ml, Con A 375 ng/ml, drug/control, read-out: Lo Mitogen D/C Con A) of 110%. For the same molecule, the activity at 25 µg/mL ([3]; drug 25,000 ng/ml, Con A 375 ng/ml, drug/control, read-out: Lo Mitogen D/C Con A) was 113%, the activity at 25 µg/mL ([3]; drug 25,000 ng/ml, Con A .375 μg/ml, read-out: Con A D/C (maximum values)) was 118% and the activity at 50 µg/mL ([3]; drug 50,000 ng/ml, Con A 375 ng/ml, drug/control, read-out: Lo Mitogen D/C Con A) was 103%. For the same molecule, the “CPM Incorp. + Con A” value ([3]; drug 10 ng/ml, Con A 375 ng/ml) was 17.3 CPM × 10^3, the “CPM Incorp. + Con A” value ([3]; drug 10 ng/ml, Con A 1000 ng/ml) was 61.8 CPM × 10^3 and the “CPM Incorp. + Con A” value ([3]; drug 100 ng/ml, Con A 375 ng/ml) was 20.6 CPM × 10^3. The “CPM Incorp. + Con A” value ([3]; drug 100 ng/ml, Con A 1000 ng/ml) was 60.8 CPM × 10^3, the “CPM Incorp. + Con A” value ([3]; drug 1,000 ng/ml, Con A 375 ng/ml) was 18.0 CPM × 10^3 and the “CPM Incorp. + Con A” value ([3]; drug 1,000 ng/ml, Con A 1000 ng/ml) was 60.8 CPM × 10^3. The “CPM Incorp. + Con A” value ([3]; drug 2,500 ng/ml, Con A 375 ng/ml) was 19.1 CPM × 10^3, the “CPM Incorp. + Con A” value ([3]; drug 2,500 ng/ml, Con A 1000 ng/ml) was 54.0 CPM × 10^3 and the “CPM Incorp. + Con A” value ([3]; drug 5,000 ng/ml, Con A 375 ng/ml) was 21.5 CPM × 10^3. The “CPM Incorp. + Con A” value ([3]; drug 5,000 ng/ml, Con A 1000 ng/ml) was 59.7 CPM × 10^3, the “CPM Incorp. + Con A” value ([3]; drug 25,000 ng/ml, Con A 375 ng/ml) was 22.1 CPM × 10^3 and the “CPM Incorp. + Con A” value ([3]; drug 25,000 ng/ml, Con A 1000 ng/ml) was 59.0 CPM × 10^3. For the same molecule, the “CPM Incorp. + Con A” value ([3]; drug 50,000 ng/ml, Con A 375 ng/ml) was 20.2 CPM × 10^3, the “CPM Incorp. + Con A” value ([3]; drug 50,000 ng/ml, Con A 1000 ng/ml) was 58.6 CPM × 10^3 and the “effect on Con A induced proliferation (T-cell response), in words” value ([3]; in vitro) was “little or no effect”. The inhibition at 37.5 µg/mL ([4]; 37.5 μg/ml) was 33%, the inhibition at 75 µg/mL ([4]; 75 μg/ml) was 61% and the inhibition at 150 µg/mL ([4]; 150 μg/ml) was 65%. The “enhancement of lymphokine (MMF) induced macrophage proliferation” value (macrophages) was 70%.
